Here are results for 7 molecules from patent US8907131B2, “Compounds for treating proliferative disorders” (Synta Pharmaceuticals Corp., priority 2007, dated 2014).

SMILES strings stand for the structures.

One assay deals with Hsp70. The experiment in a line: Hsp70 ELISA assay: Hsp70 induction in Ramos B lymphoma cells. It is filed as cell-based. Conditions: Homo sapiens; Ramos B lymphoma cells treated at 10, 50, 250 and 1250 nM for 5 h; whole culture lysate, Hsp70 ELISA; read-out: ED50 (Hsp70 induction). As to the method:
Hsp70 induction was measured in Ramos B lymphoma cells. Cells were seeded at 80 μl/well in 96-plate and treated with compounds at 10, 50, 250 and 1250 nM for 5 h. […] Cells were lysed in culture medium with ¼-vol of alkaline-detergent buffer composed of 200 mM bicarbonate, pH 9.4, and 20% Triton X100 to include Hsp70 that would be released into culture supernatant. […] Fifty microliter of the whole culture lysate was transferred to Hsp70 ELISA assay well (Assay Design) including 150 μl of immunoenhancer solution (Toyobo, Japan). Then the assay steps were carried out according to the protocol of the manufacturer. Compound A was included in each cell culture plate as a reference to normalize the interexperimental variance.
(In an ELISA, binding on a coated surface is turned into a signal by an enzyme label.)
Consider `CN(NC(=O)CC(=O)NN(C)C(=[Se])c1ccccc1)C(=[Se])c1ccccc1` [Compound 1, N′1,N′3-dimethyl-N′1,N′3-di(phenylcarbonoselenoyl)malonohydrazide], for which the EC50 was 0.07 µM.

Turning to `CO/N=C(\c1ccccc1)N(C)NC(=O)CC(=O)NN(C)/C(=N/OC)c1ccccc1` [Compound 10, N′1,N′3-bis((E)-(methoxyimino)(phenyl)methyl)-N′1,N′3-dimethylmalonohydrazide], the EC50 was more than 1.25 µM. With `CN(NC(=O)CC(=O)NN(C)/C(=N/O)c1ccccc1)/C(=N/O)c1ccccc1` [Compound 11, N′1,N′3-bis((E)-(hydroxyimino)(phenyl)methyl)-N′1,N′3-dimethylmalonohydrazide], the EC50 was more than 1.25 µM.

On to `COc1ccc(OC)c(C(=[Se])N(C)NC(=O)CC(=O)NN(C)C(=[Se])c2cc(OC)ccc2OC)c1` [Compound 12, N′^1,N′3-bis(2,5-dimethoxyphenylcarbonoselenoyl)-N′^1,N′^3-dimethylmalonohydrazide], for which the EC50 was more than 1.25 µM. `CNN=C(C(=O)NN(C)C(=[Se])c1ccccc1)C(=O)NN(C)C(=[Se])c1ccccc1` [Compound 13, N′1,N′3-dimethyl-2-(2-methylhydrazono)-N′1,N′3-di(phenylcarbonoselenoyl)malonohydrazide]: the EC50 is more than 1.25 µM. The same measure, in the same setting: under `CN(NC(=O)CS(=O)(=O)NN(C)C(=[Se])c1ccccc1)C(=[Se])c1ccccc1` [Compound 14, N′-methyl-2-(2-methyl-2-(phenylcarbonoselenoyl)hydrazinyl)-2-oxo-N′-(phenylcarbonoselenoyl)ethanesulfonohydrazide] stands more than 1.25 µM.

The assay is the same for the next values; noted with them: Ramos B lymphoma cells; titration used to set cell density.
With `CN(NC(=O)CC(=O)NN(C)C(=S)c1ccccc1)C(=S)c1ccccc1` [Compound A, reference compound], the Hsp70 induction result is listed as “Hsp70 induction in linear manner with concentration”.
